We go through one molecule from ChEMBL document CHEMBL1255426, “Single-dose pharmacokinetics of famciclovir in infants and population pharmacokinetic analysis in infants and children” (Antimicrob Agents Chemother, 2010).

The Tmax is the time from dosing to the highest level. For orientation: Cmax means the maximum level reached in the sampled fluid or tissue. Broadly, the AUC is concentration integrated over time.

Series [1] deals with Homo sapiens. As to the kind of experiment: Tmax in 1 to <3 months old infant assessed as penciclovir at 6.6 +/- 1.4 mg/kg, po single dose. Type of series: ADME, organism-based. On the set-up: route oral. The conditions noted are these: in vivo.
The subject of series [2] is Homo sapiens. The experiment in a line: Cmax in 1 to <3 months old infant assessed as penciclovir at 6.6 +/- 1.4 mg/kg, po single dose. On the set-up: route oral. Type of series: ADME, organism-based. The conditions noted are these: in vivo.
The test system of series [3] is Homo sapiens. The experiment in a line: AUC (0 to 6 hrs) in 1 to <3 months old infant assessed as penciclovir at 6.6 +/- 1.4 mg/kg, po single dose. It counts as ADME, organism-based, Plasma. On the set-up: time < 6 hr, route oral. The conditions noted are these: in vivo.
The subject of series [4] is Homo sapiens. As to the kind of experiment: Tmax in 2 to <6 months old infant assessed as penciclovir at 6.6 +/- 1.4 mg/kg, po single dose. It counts as ADME, organism-based. More on the design: route oral. The conditions noted are these: in vivo.
Series [5] deals with Homo sapiens. The experiment in a line: Cmax in 2 to <6 months old infant assessed as penciclovir at 6.6 +/- 1.4 mg/kg, po single dose. On the set-up: route oral. It counts as ADME, organism-based. As to conditions: in vivo.
Series [6] deals with Homo sapiens. The experiment in a line: AUC (0 to 6 hrs) in 2 to <6 months old infant assessed as penciclovir at 6.6 +/- 1.4 mg/kg, po single dose. Type of series: ADME, organism-based, Plasma. More on the design: time < 6 hr, route oral. The conditions noted are these: in vivo.
The subject of series [7] is Homo sapiens. As to the kind of experiment: Tmax in 6 to 12 months old infant assessed as penciclovir at 6.6 +/- 1.4 mg/kg, po single dose. As to conditions: in vivo. It counts as ADME, organism-based. More on the design: route oral.
The test system of series [8] is Homo sapiens. As to the kind of experiment: Cmax in 6 to 12 months old infant assessed as penciclovir at 6.6 +/- 1.4 mg/kg, po single dose. It counts as ADME, organism-based. More on the design: route oral. As to conditions: in vivo.
Series [9] concerns Homo sapiens. As to the kind of experiment: AUC (0 to 6 hrs) in 6 to 12 months old infant assessed as penciclovir at 6.6 +/- 1.4 mg/kg, po single dose. More on the design: time < 6 hr, route oral. Type of series: ADME, organism-based, Plasma. The conditions noted are these: in vivo.
For series [10], the system named is Homo sapiens. As to the kind of experiment: Toxicity in 1 to 12 months old infant assessed as adverse events at 13.5 mg/kg, po single dose within 8 days. Type of series: organism-based. More on the design: dose 13.5 mg/kg, route oral. As to conditions: in vivo, 192 h.
In series [11] the test system is Homo sapiens. As to the kind of experiment: Toxicity in 1 to 12 months old infant assessed as mild adverse events at 13.5 mg/kg, po single dose within 8 days. As to conditions: in vivo, 192 h. On the set-up: dose 13.5 mg/kg, route oral. Type of series: organism-based.
Series [12] deals with Homo sapiens. The experiment in a line: Toxicity in 1 to 12 months old infant assessed as moderate adverse events at 13.5 mg/kg, po single dose within 8 days. Type of series: organism-based. On the set-up: dose 13.5 mg/kg, route oral. The conditions noted are these: in vivo, 192 h.
The subject of series [13] is Homo sapiens. As to the kind of experiment: Toxicity in 1 to 12 months old infant assessed as severe adverse events at 13.5 mg/kg, po single dose within 8 days. On the set-up: dose 13.5 mg/kg, route oral. As to conditions: in vivo, 192 h. It counts as organism-based.

SMILES strings stand for the structures.

In the case of `CC(=O)OCC(CCn1cnc2cnc(N)nc21)COC(C)=O` [FAMCICLOVIR], the Tmax in the series with Homo sapiens [1] stood at 1 h; in the series with Homo sapiens [4] it was 4 h; with Homo sapiens [7], 1.02 h. For the same molecule, the highest concentration (Cmax) in the series with Homo sapiens [2] amounted to 690 ng/mL; with Homo sapiens [5], 740 ng/mL; in the series with Homo sapiens [8], 3240 ng/mL. The values for the AUC in the series on Homo sapiens [3], in the series on Homo sapiens [6] and in the series on Homo sapiens [9] were 2110 ng·h/mL, 3160 ng·h/mL and 8770 ng·h/mL, respectively. For the same molecule, the Activity with Homo sapiens [10] is 44.4%; with Homo sapiens [11], 16.7%; in the series with Homo sapiens [12], 22.2%; in the series on Homo sapiens [13] it was 5.6%.
